Series [1] relates to Staphylococcus aureus. As to the kind of experiment: Drug resistance, ratio of MIC for Staphylococcus aureus measured after 7 days to MIC for Staphylococcus aureus. The series is classed as functional.
Series [2] relates to Staphylococcus aureus. Description: Drug resistance, ratio of MIC for Staphylococcus aureus measured after 20 days to MIC for Staphylococcus aureus. The series is classed as functional.
The subject of series [3] is Staphylococcus aureus. Description: Antibacterial activity against Staphylococcus aureus measured after 20 days. The series is classed as functional. Particulars: 480 h, time 20 day.
Series [4] concerns Staphylococcus aureus. As to the kind of experiment: Resistance development in 20 day passaged Staphylococcus aureus assessed as beta-lactam antibacterial activity. The series is classed as functional, organism-based.
In series [5] the test system is Staphylococcus aureus. As to the kind of experiment: Resistance development in 20 day passaged Staphylococcus aureus assessed as cefotaxime antibacterial activity. In kind it is functional, organism-based.
Series [6] relates to Staphylococcus aureus. Description: Resistance development in 20 day passaged Staphylococcus aureus assessed as ampicillin antibacterial activity. In kind it is functional, organism-based.
The subject of series [7] is Staphylococcus aureus. As to the kind of experiment: Resistance development in 20 day passaged Staphylococcus aureus assessed as ciprofloxacin antibacterial activity. In kind it is functional, organism-based.
For series [8], the system named is Staphylococcus aureus. As to the kind of experiment: Resistance development in 20 day passaged Staphylococcus aureus assessed as levofloxacin antibacterial activity. The series is classed as functional, organism-based.
In the next series the test system is Enterococcus faecalis. As to the kind of experiment: Antibacterial activity against Enterococcus faecalis ATCC 29212 by CLSI protocol based assay. The series is classed as functional.
In series [9] the test system is Staphylococcus aureus. Description: Antibacterial activity against Staphylococcus aureus ATCC 29213 by CLSI protocol based assay. The series is classed as functional.
In series [10] the test system is Stenotrophomonas maltophilia. Description: Antibacterial activity against Stenotrophomonas maltophilia ATCC 17808 by CLSI protocol based assay. In kind it is functional.
In series [11] the test system is Escherichia coli. As to the kind of experiment: Antibacterial activity against Escherichia coli ATCC 25922 by CLSI protocol based assay. In kind it is functional.
Series [12] is described as follows: Hemolytic activity in sheep RBC. The series is classed as toxicity, cell-based, Ovis aries, Erythrocyte. Particulars: sheep red blood cells (erythrocytes).
The test system of series [13] is Staphylococcus aureus. Description: Antibacterial activity against methicillin resistant Staphylococcus aureus clinical isolates. In kind it is functional.
Series [14] deals with Staphylococcus aureus. Description: Antibacterial activity against methicillin resistant Staphylococcus aureus clinical isolates assessed as 50% inhibition of bacterial growth. The series is classed as functional.
The subject of series [15] is Staphylococcus aureus. As to the kind of experiment: Antibacterial activity against early exponential growth phase Staphylococcus aureus assessed as reduction in bacterial colony at 8 times of MIC measured at 8 to 24 hrs by time-kill kinetics assay. In kind it is functional, organism-based. The following applies: time 8-24 hrs.
The subject of series [16] is Staphylococcus aureus. As to the kind of experiment: Post-antibiotic effect against Staphylococcus aureus at 1 times of MIC incubated for 1 hrs. In kind it is functional.
For series [17], the system named is Staphylococcus aureus. As to the kind of experiment: Post-antibiotic effect against Staphylococcus aureus at 4 times of MIC incubated for 1 hrs. The series is classed as functional.
The test system of series [18] is Staphylococcus aureus. Description: Antibacterial activity against Staphylococcus aureus measured after 3 to 6 hrs in presence of 50% plasma. In kind it is functional, organism-based. Particulars: time 3-6 hrs.
Series [19] has as its system Cell membrane. Description: Induction of cell membrane depolarization in Staphylococcus aureus assessed as increase in fluorescence intensity at 16 microg/ml by DiSC3(5) dye based assay. In kind it is cell membranes. The following applies: dose 16.0 µg/ml.
In series [20] the test system is Cell membrane. As to the kind of experiment: Induction of inner membrane permeabilization in Staphylococcus aureus assessed as increase in fluorescence intensity at 16 microg/ml by PI staining based analysis. In kind it is cell membranes. Particulars: dose 16.0 µg/ml.
Series [21] has as its system Escherichia coli. As to the kind of experiment: Induction of morphological changes in Escherichia coli assessed as cell elongation at 8 times of MIC incubated for 6 hrs by scanning electron microscopic analysis. The series is classed as functional, organism-based.
The test system of series [22] is Staphylococcus aureus. Description: Antibacterial activity against Staphylococcus aureus assessed as reduction in metabolic activity at sub-MIC. In kind it is functional, organism-based.
Series [23] relates to Staphylococcus aureus. As to the kind of experiment: Antibacterial activity against Staphylococcus aureus assessed as inhibition of metabolic activity at MIC. The series is classed as functional.
Series [24] in a line: Cytotoxicity against HUVEC assessed as reduction in cell viability by CCK-8 assay. In kind it is toxicity, cell-based. Particulars: human, HUVEC cells. (In general: Tetrazolium assays rely on reduction of a dye to a coloured formazan, in cell work by metabolically active cells.)
The nature of series [25]: Cytotoxicity against rat HBZY-1 cells assessed as reduction in cell viability by CCK-8 assay. The series is classed as toxicity, cell-based.
Series [26] deals with Staphylococcus aureus. Description: Drug resistance, ratio of MIC for Staphylococcus aureus measured after 10 days to MIC for Staphylococcus aureus. In kind it is functional.
Series [27] is described as follows: Hemolytic activity in sheep RBC assessed as hemolysis rate at 1280 microg/ml relative to control. The series is classed as toxicity, cell-based, Ovis aries, Erythrocyte. Particulars: sheep red blood cells (erythrocytes), dose 1280 µg/ml, read-out: Activity.
Series [28] relates to Staphylococcus aureus. Description: Antibacterial activity against Staphylococcus aureus in presence of 50% plasma. The series is classed as functional.
The test system of series [29] is Staphylococcus aureus. As to the kind of experiment: Antibacterial activity against Staphylococcus aureus in presence of 50% serum. In kind it is functional.
The test system of series [30] is Cell membrane. As to the kind of experiment: Induction of cell membrane damage in Staphylococcus aureus assessed as nucleic acid leakage at 8 to 32 microg/ml by absorbance based analysis. Particulars: dose 8-32 µg/ml. In kind it is cell membranes.
For series [31], the system named is Cell membrane. Description: Induction of cell membrane damage in Staphylococcus aureus assessed as protein leakage at 8 to 32 microg/ml. The series is classed as cell membranes. Particulars: dose 8-32 µg/ml.
Series [32] is described as follows: Cytotoxicity against HUVEC assessed as viable cells at 128 microg/ml incubated for 48 hrs by CCK-8 assay relative to control. In kind it is toxicity, cell-based. Particulars: human, at 128 µg/mL, read-out: Activity.
Series [33] in a line: Cytotoxicity against rat HBZY-1 cells assessed as viable cells at 128 microg/ml incubated for 48 hrs by CCK-8 assay relative to control. The series is classed as toxicity, cell-based. Particulars: at 128 µg/mL, read-out: Activity.
Series [34] deals with Staphylococcus aureus. Description: Drug resistance, ratio of MIC for Staphylococcus aureus measured within 20 days to MIC for Staphylococcus aureus. In kind it is functional.

Data on three molecules can be found in ChEMBL document CHEMBL5506000, “Design, synthesis and antibacterial evaluation of low toxicity amphiphilic-cephalosporin derivatives” (Eur J Med Chem, 2024).

Values after ≈ are worked out from the molar mass of the structure shown. Active and inactive are the calls of the source. The rule behind the calls is not given here. Bounds are passed on as bounds.

As to `CCn1cc(C(=O)O)c(=O)c2cc(F)c(N3CCNCC3)cc21` [NORFLOXACIN], the Ratio is recorded as 16 with Staphylococcus aureus [1] and 64 in the series with Staphylococcus aureus [2]. The molecule further showed an MIC against Staphylococcus aureus [3] of 64 µg/mL (≈ 200 µM). Also, the outcome with Staphylococcus aureus [4], in the series with Staphylococcus aureus [5], with Staphylococcus aureus [6], with Staphylococcus aureus [7] and with Staphylococcus aureus [8] was inactive.

For `CO/N=C(\C(=O)N[C@@H]1C(=O)N2C(C(=O)[O-])=C(C[n+]3ccccc3)CS[C@H]12)c1csc(N)n1.O=C(O)C(F)(F)F`, the MIC in the series on Enterococcus faecalis amounted to 4 µg/mL; against Staphylococcus aureus [9], 1 µg/mL; in series [10], 0.063 µg/mL; against Escherichia coli [11], 0.063 µg/mL; with Staphylococcus aureus [13], 2 µg/mL. This molecule also returned an HC50 in series [12] above 1280 µg/mL. Further, the MIC50 in the series with Staphylococcus aureus [14] worked out at 2 µg/mL. Moreover, the outcome in the series with Staphylococcus aureus [15], in the series with Staphylococcus aureus [18], in the series with Escherichia coli [21] and in the series with Staphylococcus aureus [22] was Active. Besides, the PAE came to 1.48 h in the series with Staphylococcus aureus [16] and 2.1 h with Staphylococcus aureus [17]. The outcome in the series with Cell membrane [19], with Cell membrane [20], with Staphylococcus aureus [4], in the series with Staphylococcus aureus [5], in the series on Staphylococcus aureus [6] and with Staphylococcus aureus [7] was inactive. Also, in the series on Staphylococcus aureus [8], the outcome was inactive. Further, in the series with Staphylococcus aureus [23], the “inhibition (INH)” value is on record as around 100%. Besides, the CC50 in [24] and in [25] was above 128 µg/mL each time. The Ratio is reported as 32 with Staphylococcus aureus [2] and 8 with Staphylococcus aureus [26].

For the molecule `CCCCCCCCNC(=O)c1ccc[n+](CC2=C(C(=O)[O-])N3C(=O)[C@@H](NC(=O)/C(=N\OC)c4csc(N)n4)[C@H]3SC2)c1.O=C(O)C(F)(F)F`, the MIC in the series with Enterococcus faecalis worked out at 4 µg/mL; with Staphylococcus aureus [9], 0.5 µg/mL; in series [10], 8 µg/mL; in the series on Escherichia coli [11], 8 µg/mL; in the series with Staphylococcus aureus [13] it was 2 µg/mL; in the series on Staphylococcus aureus [28] it was 1 µg/mL. Moreover, in the series with Staphylococcus aureus [29], the minimal inhibitory concentration (MIC) worked out at 0.5 µg/mL. Moreover, in [12], the concentration for 50% haemolysis (HC50) is above 1280 µg/mL. Also, the hemolysis at 1280 microg/ml in series [27] was 2.85%. Further, the MIC50 with Staphylococcus aureus [14] was determined as 2 µg/mL. Moreover, the PAE with Staphylococcus aureus [16] was found to be 1.58 h; in the series on Staphylococcus aureus [17], 2.08 h. Besides, the result with Staphylococcus aureus [18], with Escherichia coli [21], in the series with Staphylococcus aureus [22], with Staphylococcus aureus [4], in the series on Staphylococcus aureus [5] and with Staphylococcus aureus [6] was Active. Also, the result with Staphylococcus aureus [7] and with Staphylococcus aureus [8] was Active. The result with Cell membrane [19], in the series on Cell membrane [20], in the series with Cell membrane [30] and in the series on Cell membrane [31] was inactive. For the same molecule, the “inhibition (INH)” value in the series with Staphylococcus aureus [23] is around 100%. Moreover, the cytotoxic concentration (CC50) in series [24] and in series [25] was above 128 µg/mL in each case. For the same molecule, the figures for the viability at 48 h, 128 microg/ml in series [32] and in [33] were 100% and 92.6%, respectively. In addition, in the series on Staphylococcus aureus [34], the Ratio is below 4.

The term MIC denotes the lowest concentration found to suppress growth. In general, HC50 refers to the concentration giving 50% haemolysis. A lower HC50 goes with stronger haemolysis. The term MIC50 denotes the lowest concentration that inhibits either 50% of growth or 50% of the strains tested, depending on the study. In general, CC50 refers to the concentration that lowers cell viability or growth by half.
